Results: publication PMC7356761 (Molecules, 2020)
Several values for one entry are separate records, joined by “and”; a condition that tells them apart may be missing. Equal values may be shown once.

Assay: Biodistribution in normal ddY mice
Assay type: in vivo, mouse
Method: Male ddY mice (27–30 g, 6 weeks old) and female BALB/c nu/nu mice (12–17 g, 4 weeks old) were purchased from Japan SLC Inc. (Hamamatsu, Japan). The mice were housed in a cage with free access to food and water maintained at a constant temperature (23–25 °C) with a 12 h light/dark cycle. […] The tumor reached palpable size 2- and 3-weeks post-inoculation. Animal experiments were conducted in accordance with laboratory guidelines for the care and use of animals of Kanazawa University. The animal handling protocol was approved by the Kanazawa University Animal Care Committee (approval number: AP-163766). 3.10. Biodistribution Studies Mice were injected intravenously via the lateral tail vein with a saline solution of [^125I]10 (25 kBq, 100 μL) containing 1% tween-80 and 10% ethanol. The ddY mice were sacrificed at 10 min, 1, 4 and 24 h; meanwhile, the tumor-bearing mice were sacrificed at 1 and 4 h post injection. The selected tissues and organs were collected and weighed and their radioactivity was measured using an auto well gamma counter. […] The mice were sacrificed 1 h after the administration of radiotracer. The biodistribution data are expressed as percent injected dose per gram of tissue (% ID/g) along with the SD.

**Q.** With `C=CC(=O)Nc1cc([125I])cc(Nc2nc(Nc3ccc(N4CCN(C(C)=O)CC4)cc3OC)ncc2C(F)(F)F)c1` [[^125I]10] as the compound, how does the “radiotracer excreted in feces” value (24 h after injection) read?
**A.** Its value is roughly 70%.

**Q.** And the “Biodistribution, Blood” value (i.v., 10 min)?
**A.** Its value is 1.06 (0.19) % ID/g tissue.

**Q.** And the “Biodistribution, Bone” value (i.v., 10 min)?
**A.** The value was 1.16 (0.21) % ID/g tissue.

**Q.** And the “Biodistribution, Brain” value (i.v., 10 min)?
**A.** Its value is 0.11 (0.02) % ID/g tissue.

**Q.** And the “Biodistribution, Heart” value (i.v., 10 min)?
**A.** The value was 3.11 (0.64) % ID/g tissue.

**Q.** What about the “Biodistribution, Kidney” value (i.v., 10 min) of the same compound?
**A.** Its value is 7.48 (1.55) % ID/g tissue.

**Q.** And the “Biodistribution, Large intestine” value (i.v., 10 min)?
**A.** Its value is 0.57 (0.04) % ID/g tissue.

**Q.** What about the “Biodistribution, Liver” value (i.v., 10 min) of the same compound?
**A.** Its value is 26.69 (0.81) % ID/g tissue.

**Q.** And the “Biodistribution, Lung” value (i.v., 10 min)?
**A.** Its value is 4.47 (1.39) % ID/g tissue.

**Q.** And the “Biodistribution, Muscle” value (i.v., 10 min)?
**A.** The value was 1.40 (0.16) % ID/g tissue.

**Q.** And the “Biodistribution, Pancreas” value (i.v., 10 min)?
**A.** Its value is 1.93 (0.37) % ID/g tissue.

**Q.** What about the “Biodistribution, Small intestine” value (i.v., 10 min) of the same compound?
**A.** The value was 9.46 (2.19) % ID/g tissue.

**Q.** And the “Biodistribution, Spleen” value (i.v., 10 min)?
**A.** Its value is 2.14 (0.50) % ID/g tissue.

**Q.** What about the “Biodistribution, Stomach” value (i.v., 10 min) of the same compound?
**A.** Its value is 3.52 (2.70) % ID/organ.

**Q.** And the “Biodistribution, Blood” value (i.v., 1 h)?
**A.** The value was 0.49 (0.05) % ID/g tissue.

**Q.** And the “Biodistribution, Bone” value (i.v., 1 h)?
**A.** Its value is 0.50 (0.22) % ID/g tissue.

**Q.** And the “Biodistribution, Brain” value (i.v., 1 h)?
**A.** Its value is 0.05 (0.02) % ID/g tissue.

**Q.** And the “Biodistribution, Heart” value (i.v., 1 h)?
**A.** Its value is 0.79 (0.13) % ID/g tissue.

**Q.** What about the “Biodistribution, Kidney” value (i.v., 1 h) of the same compound?
**A.** The value was 3.76 (0.40) % ID/g tissue.

**Q.** What about the “Biodistribution, Large intestine” value (i.v., 1 h) of the same compound?
**A.** The value was 0.53 (0.08) % ID/g tissue.

**Q.** What about the “Biodistribution, Liver” value (i.v., 1 h) of the same compound?
**A.** Its value is 18.57 (2.72) % ID/g tissue.

**Q.** What about the “Biodistribution, Lung” value (i.v., 1 h) of the same compound?
**A.** The value was 1.33 (0.08) % ID/g tissue.

**Q.** And the “Biodistribution, Muscle” value (i.v., 1 h)?
**A.** Its value is 0.44 (0.05) % ID/g tissue.

**Q.** And the “Biodistribution, Pancreas” value (i.v., 1 h)?
**A.** Its value is 0.99 (0.26) % ID/g tissue.

**Q.** What about the “Biodistribution, Small intestine” value (i.v., 1 h) of the same compound?
**A.** The value was 23.96 (2.18) % ID/g tissue.

**Q.** What about the “Biodistribution, Spleen” value (i.v., 1 h) of the same compound?
**A.** Its value is 0.90 (0.17) % ID/g tissue.

**Q.** And the “Biodistribution, Stomach” value (i.v., 1 h)?
**A.** Its value is 5.10 (1.18) % ID/organ.

**Q.** And the “Biodistribution, Blood” value (i.v., 4 h)?
**A.** Its value is 0.33 (0.07) % ID/g tissue.

**Q.** What about the “Biodistribution, Bone” value (i.v., 4 h) of the same compound?
**A.** The value was 0.29 (0.11) % ID/g tissue.

**Q.** And the “Biodistribution, Brain” value (i.v., 4 h)?
**A.** The value was 0.03 (0.01) % ID/g tissue.

**Q.** What about the “Biodistribution, Heart” value (i.v., 4 h) of the same compound?
**A.** Its value is 0.35 (0.09) % ID/g tissue.

**Q.** What about the “Biodistribution, Kidney” value (i.v., 4 h) of the same compound?
**A.** The value was 2.37 (0.17) % ID/g tissue.

**Q.** And the “Biodistribution, Large intestine” value (i.v., 4 h)?
**A.** The value was 53.44 ± 6.73 % ID/g tissue and 53.44 (6.73) % ID/g tissue.

**Q.** And the “Biodistribution, Liver” value (i.v., 4 h)?
**A.** The value was 7.85 (0.92) % ID/g tissue.

**Q.** And the “Biodistribution, Lung” value (i.v., 4 h)?
**A.** Its value is 0.86 (0.10) % ID/g tissue.

**Q.** What about the “Biodistribution, Muscle” value (i.v., 4 h) of the same compound?
**A.** The value was 0.13 (0.03) % ID/g tissue.

**Q.** And the “Biodistribution, Pancreas” value (i.v., 4 h)?
**A.** Its value is 0.41 (0.03) % ID/g tissue.

**Q.** And the “Biodistribution, Small intestine” value (i.v., 4 h)?
**A.** The value was 9.81 (1.03) % ID/g tissue.

**Q.** What about the “Biodistribution, Spleen” value (i.v., 4 h) of the same compound?
**A.** Its value is 0.58 (0.11) % ID/g tissue.

**Q.** What about the “Biodistribution, Stomach” value (i.v., 4 h) of the same compound?
**A.** The value was 1.38 (0.56) % ID/organ.

**Q.** And the “Biodistribution, Blood” value (i.v., 24 h)?
**A.** The value was 0.05 (0.01) % ID/g tissue.

**Q.** What about the “Biodistribution, Bone” value (i.v., 24 h) of the same compound?
**A.** Its value is 0.07 (0.05) % ID/g tissue.

**Q.** What about the “Biodistribution, Brain” value (i.v., 24 h) of the same compound?
**A.** The value was 0.01 (0.01) % ID/g tissue.

**Q.** And the Biodistribution, Feces (i.v., 24 h)?
**A.** Its Biodistribution, Feces is 69.9 % ID.

**Q.** And the “Biodistribution, Heart” value (i.v., 24 h)?
**A.** The value was 0.09 (0.05) % ID/g tissue.

**Q.** And the “Biodistribution, Kidney” value (i.v., 24 h)?
**A.** The value was 0.25 (0.01) % ID/g tissue.

**Q.** And the “Biodistribution, Large intestine” value (i.v., 24 h)?
**A.** The value was 0.34 (0.08) % ID/g tissue.

**Q.** And the “Biodistribution, Liver” value (i.v., 24 h)?
**A.** Its value is 0.80 (0.10) % ID/g tissue.

**Q.** What about the “Biodistribution, Lung” value (i.v., 24 h) of the same compound?
**A.** The value was 0.26 (0.03) % ID/g tissue.

**Q.** And the “Biodistribution, Muscle” value (i.v., 24 h)?
**A.** Its value is 0.04 (0.04) % ID/g tissue.

**Q.** What about the “Biodistribution, Pancreas” value (i.v., 24 h) of the same compound?
**A.** The value was 0.10 (0.11) % ID/g tissue.

**Q.** And the “Biodistribution, Small intestine” value (i.v., 24 h)?
**A.** Its value is 0.10 (0.01) % ID/g tissue.

**Q.** And the “Biodistribution, Spleen” value (i.v., 24 h)?
**A.** Its value is 0.08 (0.04) % ID/g tissue.
